Laboratory results as given in ChEMBL document CHEMBL5291721, “A preclinical secondary pharmacology resource illuminates target-adverse drug reaction associations of marketed drugs” (Nat Commun, 2023).
Blank lines part the entries; values can stand above or below the compound they belong to.

What was measured:
D(1A) dopamine receptor = D(1A) dopamine receptor (Homo sapiens, UniProt P21728); type: functional, cell-based
[1] = biological target: T1, Muscarinic acetylcholine receptor M5 (Homo sapiens, UniProt P08912)
T1 sequence (P08912 whole entry): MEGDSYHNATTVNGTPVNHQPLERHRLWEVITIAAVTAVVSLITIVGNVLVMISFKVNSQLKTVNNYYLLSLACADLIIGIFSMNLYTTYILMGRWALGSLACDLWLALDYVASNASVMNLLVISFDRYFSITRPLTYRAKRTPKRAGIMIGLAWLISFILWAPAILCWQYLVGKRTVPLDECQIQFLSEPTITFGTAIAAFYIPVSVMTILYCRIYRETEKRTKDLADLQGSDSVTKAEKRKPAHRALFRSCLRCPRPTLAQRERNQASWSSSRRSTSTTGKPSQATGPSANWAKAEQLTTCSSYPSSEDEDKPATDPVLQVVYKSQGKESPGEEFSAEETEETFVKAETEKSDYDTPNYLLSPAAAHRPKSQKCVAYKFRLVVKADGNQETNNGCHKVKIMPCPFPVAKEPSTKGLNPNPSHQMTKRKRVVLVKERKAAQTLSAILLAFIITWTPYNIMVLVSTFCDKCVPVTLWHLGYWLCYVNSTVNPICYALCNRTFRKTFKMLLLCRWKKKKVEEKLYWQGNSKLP

D(1B) dopamine receptor = D(1B) dopamine receptor (Homo sapiens, UniProt P21918)
D(1B) dopamine receptor, sequence (P21918 whole entry): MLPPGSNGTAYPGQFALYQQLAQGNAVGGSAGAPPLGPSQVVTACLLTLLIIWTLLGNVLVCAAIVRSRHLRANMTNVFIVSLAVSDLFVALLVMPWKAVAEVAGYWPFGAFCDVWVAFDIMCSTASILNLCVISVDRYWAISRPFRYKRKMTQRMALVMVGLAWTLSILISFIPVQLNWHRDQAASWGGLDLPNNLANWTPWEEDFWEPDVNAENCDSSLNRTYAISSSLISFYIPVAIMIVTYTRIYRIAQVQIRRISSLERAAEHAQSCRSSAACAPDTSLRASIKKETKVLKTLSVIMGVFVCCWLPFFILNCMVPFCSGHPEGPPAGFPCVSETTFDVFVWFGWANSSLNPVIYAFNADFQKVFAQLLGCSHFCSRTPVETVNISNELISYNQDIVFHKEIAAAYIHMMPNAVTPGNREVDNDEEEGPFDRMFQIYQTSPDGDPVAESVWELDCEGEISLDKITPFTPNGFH

[2] = biological target: 5-hydroxytryptamine receptor 5A (Homo sapiens, UniProt P47898)
5-hydroxytryptamine receptor 5A, sequence (P47898 whole entry): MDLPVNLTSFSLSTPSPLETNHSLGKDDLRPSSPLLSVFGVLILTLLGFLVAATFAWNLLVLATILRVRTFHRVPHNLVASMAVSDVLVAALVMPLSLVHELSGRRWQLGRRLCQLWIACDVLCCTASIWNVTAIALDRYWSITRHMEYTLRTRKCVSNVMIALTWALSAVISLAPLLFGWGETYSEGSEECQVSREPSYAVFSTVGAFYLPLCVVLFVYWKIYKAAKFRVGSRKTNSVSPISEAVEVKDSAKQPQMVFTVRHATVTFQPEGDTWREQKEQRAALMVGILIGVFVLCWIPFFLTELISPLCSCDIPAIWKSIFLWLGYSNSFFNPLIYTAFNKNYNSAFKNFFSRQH

Thromboxane A2 receptor [3] = biological target: T2, Thromboxane A2 receptor (Homo sapiens, UniProt P21731); type: functional
T2 sequence (P21731 whole entry): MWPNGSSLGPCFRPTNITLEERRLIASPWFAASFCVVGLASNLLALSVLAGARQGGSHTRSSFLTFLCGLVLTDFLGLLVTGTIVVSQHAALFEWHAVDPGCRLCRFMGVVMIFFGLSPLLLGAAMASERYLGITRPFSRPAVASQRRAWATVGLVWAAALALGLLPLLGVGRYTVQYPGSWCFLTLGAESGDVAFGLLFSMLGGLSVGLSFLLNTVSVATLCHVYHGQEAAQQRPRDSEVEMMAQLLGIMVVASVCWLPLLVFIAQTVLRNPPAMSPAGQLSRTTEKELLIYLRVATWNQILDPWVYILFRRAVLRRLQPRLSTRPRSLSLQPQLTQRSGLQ

[4] = biological target: Vascular endothelial growth factor receptor 2 (Homo sapiens, UniProt P35968); type: functional
Thromboxane A2 receptor [5] = biological target: T2, Thromboxane A2 receptor; type: functional, cell-based
[6] = biological target: Beta-1 adrenergic receptor (Homo sapiens, UniProt P08588); type: functional, cell-based
Beta-1 adrenergic receptor, sequence (P08588 whole entry): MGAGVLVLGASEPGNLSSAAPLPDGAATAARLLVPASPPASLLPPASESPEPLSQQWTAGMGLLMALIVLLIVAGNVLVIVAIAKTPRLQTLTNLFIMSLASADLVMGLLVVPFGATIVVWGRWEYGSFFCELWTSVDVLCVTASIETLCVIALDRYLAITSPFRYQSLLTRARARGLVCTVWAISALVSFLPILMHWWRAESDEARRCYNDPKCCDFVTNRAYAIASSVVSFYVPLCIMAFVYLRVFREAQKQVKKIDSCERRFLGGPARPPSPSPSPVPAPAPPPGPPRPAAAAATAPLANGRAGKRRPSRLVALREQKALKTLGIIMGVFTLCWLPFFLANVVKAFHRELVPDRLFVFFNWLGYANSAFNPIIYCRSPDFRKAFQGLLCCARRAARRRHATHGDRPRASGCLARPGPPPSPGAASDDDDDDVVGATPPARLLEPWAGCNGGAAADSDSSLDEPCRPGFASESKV

[7] = biological target: T3, Peroxisome proliferator-activated receptor gamma (Homo sapiens, UniProt P37231); type: functional
T3 sequence (P37231 whole entry): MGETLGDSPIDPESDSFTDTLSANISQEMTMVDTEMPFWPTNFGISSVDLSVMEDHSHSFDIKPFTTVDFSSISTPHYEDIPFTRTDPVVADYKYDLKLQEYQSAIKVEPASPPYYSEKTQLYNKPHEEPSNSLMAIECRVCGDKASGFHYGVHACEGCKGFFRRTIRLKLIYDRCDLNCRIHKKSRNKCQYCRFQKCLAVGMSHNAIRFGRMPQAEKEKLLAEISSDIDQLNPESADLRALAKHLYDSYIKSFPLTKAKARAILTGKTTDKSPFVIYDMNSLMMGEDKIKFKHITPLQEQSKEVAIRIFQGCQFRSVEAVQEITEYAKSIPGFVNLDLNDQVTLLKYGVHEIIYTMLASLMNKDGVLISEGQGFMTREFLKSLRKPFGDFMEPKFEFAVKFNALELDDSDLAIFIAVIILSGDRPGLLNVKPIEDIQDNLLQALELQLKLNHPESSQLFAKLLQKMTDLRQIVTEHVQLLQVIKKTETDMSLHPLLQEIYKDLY

[8] = biological target: T3, Peroxisome proliferator-activated receptor gamma; type: functional; remark: listed apart in the source
[9] = biological target: T4, Muscarinic acetylcholine receptor M2 (Homo sapiens, UniProt P08172)
T4 sequence (P08172 whole entry): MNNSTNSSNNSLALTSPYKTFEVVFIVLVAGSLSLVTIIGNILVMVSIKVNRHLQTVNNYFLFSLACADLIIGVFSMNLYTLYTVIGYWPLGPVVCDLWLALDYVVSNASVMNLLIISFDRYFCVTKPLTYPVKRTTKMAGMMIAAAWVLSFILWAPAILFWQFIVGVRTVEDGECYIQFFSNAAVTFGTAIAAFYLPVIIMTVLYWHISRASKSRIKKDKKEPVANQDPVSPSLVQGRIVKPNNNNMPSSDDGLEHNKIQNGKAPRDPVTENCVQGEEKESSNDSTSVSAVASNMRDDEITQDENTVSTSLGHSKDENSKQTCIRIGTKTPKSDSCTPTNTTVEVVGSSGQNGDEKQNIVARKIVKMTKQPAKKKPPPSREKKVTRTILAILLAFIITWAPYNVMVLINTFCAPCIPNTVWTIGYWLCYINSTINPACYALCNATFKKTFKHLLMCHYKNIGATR

[10] = biological target: Gamma-aminobutyric acid type B receptor subunit 1 (Homo sapiens, UniProt Q9UBS5)
Gamma-aminobutyric acid type B receptor subunit 1, sequence (Q9UBS5 whole entry): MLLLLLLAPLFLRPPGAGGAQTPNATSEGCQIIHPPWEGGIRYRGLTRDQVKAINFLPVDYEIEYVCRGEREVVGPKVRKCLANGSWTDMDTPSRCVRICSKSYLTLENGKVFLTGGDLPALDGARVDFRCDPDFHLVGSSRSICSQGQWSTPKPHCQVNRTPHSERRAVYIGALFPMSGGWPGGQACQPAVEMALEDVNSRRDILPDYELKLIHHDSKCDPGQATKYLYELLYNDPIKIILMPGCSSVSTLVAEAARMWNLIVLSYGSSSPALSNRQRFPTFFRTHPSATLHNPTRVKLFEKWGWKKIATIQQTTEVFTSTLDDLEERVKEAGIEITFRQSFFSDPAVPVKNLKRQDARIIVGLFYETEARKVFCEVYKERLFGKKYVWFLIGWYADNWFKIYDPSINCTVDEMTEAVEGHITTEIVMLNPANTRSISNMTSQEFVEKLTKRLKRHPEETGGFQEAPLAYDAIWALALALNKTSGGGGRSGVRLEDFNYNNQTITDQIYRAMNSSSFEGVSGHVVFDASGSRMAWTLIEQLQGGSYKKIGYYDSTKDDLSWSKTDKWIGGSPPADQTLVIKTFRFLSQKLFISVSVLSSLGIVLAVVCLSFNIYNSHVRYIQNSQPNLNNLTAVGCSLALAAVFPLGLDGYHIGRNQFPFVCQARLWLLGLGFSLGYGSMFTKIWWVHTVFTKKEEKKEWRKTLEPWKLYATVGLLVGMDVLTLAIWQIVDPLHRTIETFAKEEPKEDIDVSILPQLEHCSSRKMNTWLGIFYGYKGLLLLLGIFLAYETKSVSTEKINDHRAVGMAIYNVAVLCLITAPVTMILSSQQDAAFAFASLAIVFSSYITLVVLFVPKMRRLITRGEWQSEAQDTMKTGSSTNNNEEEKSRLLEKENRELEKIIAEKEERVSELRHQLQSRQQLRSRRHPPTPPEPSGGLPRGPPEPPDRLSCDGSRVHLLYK

[11] = biological target: Sodium channel protein type 5 subunit alpha (Homo sapiens, UniProt Q14524); type: functional, cell-based
Sodium channel protein type 5 subunit alpha, sequence (Q14524 whole entry): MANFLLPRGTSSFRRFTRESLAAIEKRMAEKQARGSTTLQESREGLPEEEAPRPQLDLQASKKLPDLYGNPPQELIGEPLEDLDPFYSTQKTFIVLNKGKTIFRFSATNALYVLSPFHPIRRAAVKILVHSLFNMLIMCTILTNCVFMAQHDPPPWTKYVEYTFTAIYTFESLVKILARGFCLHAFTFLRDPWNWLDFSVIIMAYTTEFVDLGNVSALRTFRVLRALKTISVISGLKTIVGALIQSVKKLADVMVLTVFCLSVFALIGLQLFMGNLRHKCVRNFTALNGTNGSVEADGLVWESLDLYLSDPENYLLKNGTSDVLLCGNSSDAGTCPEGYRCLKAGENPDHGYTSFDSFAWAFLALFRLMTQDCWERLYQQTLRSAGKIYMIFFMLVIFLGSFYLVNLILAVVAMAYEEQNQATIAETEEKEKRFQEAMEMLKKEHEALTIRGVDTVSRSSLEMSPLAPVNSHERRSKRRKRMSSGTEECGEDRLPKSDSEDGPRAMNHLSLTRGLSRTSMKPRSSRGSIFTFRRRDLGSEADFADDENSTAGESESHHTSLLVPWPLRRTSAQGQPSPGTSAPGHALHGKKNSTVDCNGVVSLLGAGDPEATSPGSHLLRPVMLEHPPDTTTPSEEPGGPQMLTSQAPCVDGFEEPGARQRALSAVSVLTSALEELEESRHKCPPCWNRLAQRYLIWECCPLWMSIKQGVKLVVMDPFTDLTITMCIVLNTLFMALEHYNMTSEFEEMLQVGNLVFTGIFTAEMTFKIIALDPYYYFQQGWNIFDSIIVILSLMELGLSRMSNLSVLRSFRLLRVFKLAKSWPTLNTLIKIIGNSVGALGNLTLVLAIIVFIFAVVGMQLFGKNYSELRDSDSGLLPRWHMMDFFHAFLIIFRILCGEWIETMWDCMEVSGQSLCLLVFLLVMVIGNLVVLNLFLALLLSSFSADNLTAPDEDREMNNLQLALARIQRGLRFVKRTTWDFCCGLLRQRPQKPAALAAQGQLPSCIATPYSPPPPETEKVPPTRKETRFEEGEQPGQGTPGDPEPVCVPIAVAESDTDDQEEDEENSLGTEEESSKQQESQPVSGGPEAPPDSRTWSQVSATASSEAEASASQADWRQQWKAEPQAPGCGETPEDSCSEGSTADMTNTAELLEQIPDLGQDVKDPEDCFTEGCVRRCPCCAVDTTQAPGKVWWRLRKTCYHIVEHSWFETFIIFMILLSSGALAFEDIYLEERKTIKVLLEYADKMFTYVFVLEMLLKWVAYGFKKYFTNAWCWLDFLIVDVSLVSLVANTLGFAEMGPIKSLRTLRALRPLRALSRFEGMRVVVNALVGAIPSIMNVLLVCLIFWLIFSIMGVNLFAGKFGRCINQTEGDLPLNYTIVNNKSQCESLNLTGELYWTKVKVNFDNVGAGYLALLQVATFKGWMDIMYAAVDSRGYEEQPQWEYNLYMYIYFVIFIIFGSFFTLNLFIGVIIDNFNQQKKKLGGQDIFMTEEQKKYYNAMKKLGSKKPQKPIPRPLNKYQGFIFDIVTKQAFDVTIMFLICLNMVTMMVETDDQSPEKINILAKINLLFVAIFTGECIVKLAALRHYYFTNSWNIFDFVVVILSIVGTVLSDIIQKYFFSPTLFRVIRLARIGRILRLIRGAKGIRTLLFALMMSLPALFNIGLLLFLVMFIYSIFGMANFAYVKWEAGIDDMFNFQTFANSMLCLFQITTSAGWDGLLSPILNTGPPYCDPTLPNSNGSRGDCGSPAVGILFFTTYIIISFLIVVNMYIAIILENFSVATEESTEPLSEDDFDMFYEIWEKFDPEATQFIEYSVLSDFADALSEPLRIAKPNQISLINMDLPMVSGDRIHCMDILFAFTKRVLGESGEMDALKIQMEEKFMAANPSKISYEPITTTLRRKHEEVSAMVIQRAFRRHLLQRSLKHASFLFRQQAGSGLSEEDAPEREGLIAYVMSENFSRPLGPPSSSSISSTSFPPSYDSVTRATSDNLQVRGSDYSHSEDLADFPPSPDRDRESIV

[12] = biological target: Hydroxycarboxylic acid receptor 2 (Homo sapiens, UniProt Q8TDS4)
[13] = biological target: Synaptic vesicular amine transporter (Rattus norvegicus, UniProt Q01827); type: functional
Further: assay procedure not described here.

D(1A) dopamine receptor, sequence (P21728 whole entry): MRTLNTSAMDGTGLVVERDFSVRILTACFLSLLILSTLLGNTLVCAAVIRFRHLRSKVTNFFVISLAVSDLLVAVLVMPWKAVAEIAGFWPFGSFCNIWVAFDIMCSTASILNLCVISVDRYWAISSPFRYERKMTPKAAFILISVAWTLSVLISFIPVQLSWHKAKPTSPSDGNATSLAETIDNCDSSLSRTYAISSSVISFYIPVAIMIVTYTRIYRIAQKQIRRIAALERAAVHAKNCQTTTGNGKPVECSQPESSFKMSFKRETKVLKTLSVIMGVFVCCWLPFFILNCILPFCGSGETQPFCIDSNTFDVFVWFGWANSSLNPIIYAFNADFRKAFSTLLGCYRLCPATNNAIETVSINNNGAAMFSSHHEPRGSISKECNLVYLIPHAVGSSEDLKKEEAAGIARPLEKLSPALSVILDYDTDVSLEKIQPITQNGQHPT

AC50 [6]: > 30 µM
SMILES: CC(C(O)c1ccc(O)cc1)N1CCC(Cc2ccccc2)CC1 (stereo not given) [IFENPRODIL]

AC50 [6]: > 30 µM
SMILES: CN(CCCN1c2ccccc2CCc2ccccc21)CC(=O)c1ccc(Cl)cc1 [LOFEPRAMINE]

AC50 [1]: 0.589 µM | AC50 (D(1B) dopamine receptor): 5.78 µM | AC50 [2]: 0.823 µM
SMILES: CN(C)CCCN1c2ccccc2Sc2ccccc21 [PROMAZINE]

AC50 [10]: > 10 µM
SMILES: O=P(O)(O)C(O)(Cc1cccnc1)P(=O)(O)O [RISEDRONIC ACID]
AC50 [11]: > 30 µM

Second part, the compound before the results:

SMILES: C[N+](C)(C)CCOC(N)=O [CARBAMOYLCHOLINE]
AC50 (D(1A) dopamine receptor): > 30 µM

SMILES: O=C(Nc1ccccc1)OCC(CN1CCCCC1)OC(=O)Nc1ccccc1 (stereo not given) [DIPERODON]
AC50 [1]: > 10 µM | AC50 (D(1B) dopamine receptor): > 10 µM | AC50 [2]: > 10 µM | AC50 (Thromboxane A2 receptor [3]): > 30 µM | AC50 [4]: > 30 µM | AC50 (Thromboxane A2 receptor [5]): > 30 µM

SMILES: CC(=O)O[C@]1(C(C)=O)CC[C@H]2[C@@H]3C[C@H](C)C4=CC(=O)CC[C@]4(C)[C@H]3CC[C@@]21C [MEDROXYPROGESTERONE ACETATE]
AC50 [7]: > 30 µM | AC50 [8]: > 30 µM

SMILES: CC(=O)OC(C)C[N+](C)(C)C (stereo not given) [METHACHOLINE]
AC50 [9]: 9.7 µM

SMILES: O=C1CCC(N2C(=O)c3ccccc3C2=O)C(=O)N1 (stereo not given) [THALIDOMIDE]
AC50 [10]: > 10 µM | AC50 [12]: > 10 µM

SMILES: COc1cc2c(cc1OC)[C@H]1C[C@@H](OC(=O)[C@@H](N)C(C)C)[C@H](CC(C)C)CN1CC2 [VALBENAZINE]
AC50 [13]: 0.46 µM
